Test results: patent EP1690525B1, “Gamma-polyglutamate hydrogels for use as super moisturizers in cosmetic and personal care products” (Tung Hai Biotechnology Corporation, priority 2005, dated 2006)

How the values were obtained:
tyrosinase = test: Inhibition of tyrosinase activity (absorbency at 475 nm); type: biochemical; settings: 1.0% sample
From the text: Although the formation of black pigment melanin on skin is complicated, it is generally realized that tyrosine is oxidized to DOPA (Dihydroxy Phenyalanine) by the catalysis of tyrosinase from melansome of melanocyte. The DOPA is further oxidized and finally converted into colored melanin-protein complex. The small molecular weight γ-polyglutamate in Na^+ form with 200,000 to 350,000 daltons (designated as LM) and high molecular weight γ-polyglutamate in Na^+ form with 1.15x10^6 to 1.35x10^6 daltons (designated as HM) were used in this experiment to determine the effectiveness in inhibiting the tyrosinase activity. • a. […] Sample of the reaction solution is then taken for measuring the absorbency at 475 nm, and recorded as At. • b. Determination of the blank absorbance of tyrosinase solutuion: • Replace 0.1 ml of buffer solution with tyrosinase solution, and repeat the same procedure in item (a), and record the absorbency at 475 nm as A1. • c. Replace 1 ml sample solution with buffer solution, and repeat the same procedure in item (a), and record the absorbance at 475 nm as Ab. • d. Determination of total blank absorbance of test solution: • Replace 1 ml sample solution with buffer solution, and 0.1 ml of tyrosinase solution with buffer solution, and repeat the procedure in item (a), and record the absorbency at 475 nm as Ao. • e. […]

Pig skin [1] = test: Ex-vivo pig skin: skin moisture retention by corneometry; settings: 6.5% in skin moisture cream, 23°C and RH 60%
Method: Table 9. Skin moisture cream formulation.
Pig skin was used for this experiment. The skin moisture was measured at 23 °C under an environment of relative humidity (RH) of 60% with a probe of corneometer HM99 of Courage^+Khazaka Electronic Gmbh, Germany.

Pig skin [2] = test: Ex-vivo pig skin: Trans-Epidermal-Water-Loss (TEWL); parameters: unit not given here; settings: 6.5% in skin moisture cream
[3] = test system: outside skin surface of the arm of a test panelist; test: Moisture retention of the skin after peeling off facial moisture mask (capacitance, Skin Analysis SHP88); type: in vivo, human; settings: 5.0% in facial moisture mask; mask film peeled off after 15 minutes; 23°C, RH 65%
[4] = test system: outside surface of the upper arm skin of a test panelist; test: Skin irritation patch test, Draize method; type: in vivo, human; settings: 5.0% in facial moisture mask; patched 24 hours
From the text: The small molecular weight γ-polyglutamate in […] with 200,000 to 400,000 daltons (designated as LM), high molecular weight γ-polyglutamate in Ca^++ form with 1.15x10^6 to 1.35x10^6 daltons (designated as HM), and γ-polyglutamate hydrogel (prepared from γ-polyglutamate in Na^+ form) with molecular weight from 15x10^6 to 100x10^6 or higher (cross-linked with gamma ray irradiation) were used as super moisturizers. The species and proportions of the ingredients contained in the exemplified facial moisture mask formulation are listed in Table 5. Table 5. Facial Moisture Mask Formulation
The moisture mask samples of 25 cm^2 were taken from experimental example 4 and patched evenly on the outside surface of the upper arm skin of a test panelist. A group of 10 panelists participated in this test. After 24 hours, then the mask samples were removed and the skin was observed carefully for any degree of irritation, and the results were recorded according to Draize method (see Appraisel of the Safety of Chemicals in Food, Drugs and Cosmetics. Pharmacolo. 93:377-392, 1948, Draize, F. et al.). Table 6. The film formation time, capacity increase ratio (%), the pH value of the skin, and the Draize score after applying facial moisture masks

[5] = test system: outside skin surface of the panelist's arm; test: Skin moisturization by corneometer HM99 (ΔCU=CU2-CU1); type: in vivo, human; settings: 2% in skin moisture cream
Method: Table 7: Skin moisture cream formulation. The cosmetic products from experimental example 6 were evaluated for the effectiveness of skin moisturization. A group of 5 test panelists participated in this experiment. The panelists were first put in a room with a temperature at 22 °C and relative humidity (RH) 60% for 15 minutes. A probe of the corneometer HM99 of Courage^+Khazaka Electronic Gmbh, Germany was used to measure the skin moisture of the outside skin surface of the panelist's arm to determine the base line as (CU1). A sample of 0.2g from the formulation of experimental example 6 was evenly spread over an area of 25 cm^2 of the skin surface for 2 minutes before the excess formulation sample was removed. After 2 hours the skin moisture was measured again and recorded as (CU2). Before the measurement the panelists were placed in a room with temperature at 22 °C and RH 60% for 15 minutes. The atteration of skin moisture is then calculated as ΔCU=CU2-CU1.

[6] = test system: inside skin surface of a test panelist's arm; test: Water retention on skin after skin vital moisture cream (capacitance, Skin Analysis SHP88); type: in vivo, human; settings: 5% in skin vital moisture cream, 22°C and RH 65%
Method: Table 2: Skin vital moisture cream formulation. […] A sample of 0.2g from each of the 5 products was evenly spread over an area of about 25 cm^2 on the inside skin surface of a test panelist's arm. A group of 10 panelists participated in this test. The water retention on the skin surface was measured at 23 °C under an environment of relative humidity of 60%, with a probe of Skin Analysis SHP88 made by Courage ^+Khazaka Electronic Gmbh, Germany. […] Table 3. The change of moisture retention over time after applying vital moisture creams, was expressed in terms of capacitance increase ratio, %, measured at 22°C and RH 65%.

## O=c1cc(CO)occ1O [Kojic Acid]
tyrosinase
  Inhibition of Tyrosinase Activity, %: 100.0%

## O=C1O[C@H]([C@@H](O)CO)C(O)=C1O [Vitamin C]
tyrosinase
  Inhibition of Tyrosinase Activity, %: 99.4%

## OCC(O)CO [Glycerol]
Pig skin [1]; Time 0 hour
  Difference Corneometry, %: 48.. %
Pig skin [1]; Time 1 hour
  Difference Corneometry, %: 32%
Pig skin [1]; Time 2 hour
  Difference Corneometry, %: 20%
Pig skin [1]; Time 4 hour
  Difference Corneometry, %: 17%
Pig skin [1]; Time -1 hour
  Difference Corneometry, %: 100%
Pig skin [2]; Time 0 hour
  Trans-Epidermal-Water-Loss (TEWL): 21.0.
Pig skin [2]; Time 1 hour
  Trans-Epidermal-Water-Loss (TEWL): 19.5
Pig skin [2]; Time 2 hour
  Trans-Epidermal-Water-Loss (TEWL): 19.0
Pig skin [2]; Time 2 hour, listed as glycerol
  Trans-Epidermal-Water-Loss (TEWL): 10.0
Pig skin [2]; Time 4 hour
  Trans-Epidermal-Water-Loss (TEWL): 17.5
Pig skin [2]; Time -1 hour
  Trans-Epidermal-Water-Loss (TEWL): 24.7

## CC(O)CCO (stereo not drawn) [1,3-BG, 1,3-Butyl Glycol]
[3]
  Capacitance Increase Ratio, %: 73.2%
[4]
  Draize Score: 0

## C[N+](C)(C)CC(=O)O [Natural Betaine]
[5]; after 2 hours, 22 °C, RH 60%
  Increase in Skin Moisture ΔCU: 12.3
[5]; relative to 5% Glycerol = 100
  Relative ΔCU %: 164%

## CC(O)CO (stereo not drawn) [Propylene Glycol]
[6]; Time 0 min
  Capacitance Increase Ratio, %: 0%
[6]; Time 5 min
  Capacitance Increase Ratio, %: 105%
[6]; Time 10 min
  Capacitance Increase Ratio, %: 57%
[6]; Time 20 min
  Capacitance Increase Ratio, %: 51%
[6]; Time 40 min
  Capacitance Increase Ratio, %: 40%
[6]; Time 80 min
  Capacitance Increase Ratio, %: 38%
[6]; Time 120 min
  Capacitance Increase Ratio, %: 36%
